Data on 16 compounds can be found in ChEMBL document CHEMBL1152158, “Trifluoromethylpyrimidine-based inhibitors of proline-rich tyrosine kinase 2 (PYK2): structure-activity relationships and strategies for the elimination of reactive metabolite formation” (Bioorg Med Chem Lett, 2008).

SMILES strings stand for the structures. Bounds are passed on as bounds.

Data set [1] addresses T1, Focal adhesion kinase 1 (Homo sapiens, UniProt Q05397). Kind of data set: Inhibition of GST-tagged FAK assessed as inhibition of poly-Glu-Tyr phosphorylation by fluorescence polarization assay. A general note: Fluorescence polarisation rises when a labelled molecule tumbles more slowly, as on binding a larger partner.
Data set [2] has as its target T1, Focal adhesion kinase 1.
The next data set can be described thus: in vitro. To be noted: human, liver microsomes. On the technique in general: Liver microsomes are a subcellular fraction often used to study metabolism.
In data set [3] the target is Protein-tyrosine kinase 2-beta (Homo sapiens, UniProt Q14289).
Sequence of Protein-tyrosine kinase 2-beta (Q14289 whole entry): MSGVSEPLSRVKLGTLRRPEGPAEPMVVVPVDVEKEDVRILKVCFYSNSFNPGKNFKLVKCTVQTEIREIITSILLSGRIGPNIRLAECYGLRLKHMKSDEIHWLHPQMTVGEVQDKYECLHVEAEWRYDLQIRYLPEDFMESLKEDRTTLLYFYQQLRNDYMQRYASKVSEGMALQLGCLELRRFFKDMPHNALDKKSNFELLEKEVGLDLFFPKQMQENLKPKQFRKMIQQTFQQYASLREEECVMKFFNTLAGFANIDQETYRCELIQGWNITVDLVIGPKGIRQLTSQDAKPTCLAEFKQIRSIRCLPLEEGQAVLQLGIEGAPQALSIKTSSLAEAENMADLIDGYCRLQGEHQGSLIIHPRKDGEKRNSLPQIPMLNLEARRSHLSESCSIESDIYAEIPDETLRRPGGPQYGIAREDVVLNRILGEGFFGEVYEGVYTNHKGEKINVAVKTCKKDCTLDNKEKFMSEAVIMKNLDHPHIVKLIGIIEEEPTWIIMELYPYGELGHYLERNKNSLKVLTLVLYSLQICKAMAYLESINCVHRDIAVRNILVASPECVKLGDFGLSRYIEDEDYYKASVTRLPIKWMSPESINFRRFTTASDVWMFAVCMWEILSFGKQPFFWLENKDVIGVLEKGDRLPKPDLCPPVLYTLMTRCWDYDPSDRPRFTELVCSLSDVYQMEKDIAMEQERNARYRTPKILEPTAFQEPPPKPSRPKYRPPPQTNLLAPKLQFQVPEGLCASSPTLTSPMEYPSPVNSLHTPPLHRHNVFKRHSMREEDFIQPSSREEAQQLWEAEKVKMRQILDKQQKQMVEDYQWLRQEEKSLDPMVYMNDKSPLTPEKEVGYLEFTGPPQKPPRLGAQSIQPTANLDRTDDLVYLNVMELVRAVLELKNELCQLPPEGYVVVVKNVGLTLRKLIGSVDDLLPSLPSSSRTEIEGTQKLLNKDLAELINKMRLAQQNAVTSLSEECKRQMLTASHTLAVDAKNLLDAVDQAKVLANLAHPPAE
Description: Inhibition of GST-tagged pyk2 assessed as inhibition of poly-Glu-Tyr phosphorylation
Data set [4] is described as follows: Oral bioavailability in rat. To be noted: in vivo. In kind it is ADME, organism-based.

T1 sequence (Q05397 whole entry): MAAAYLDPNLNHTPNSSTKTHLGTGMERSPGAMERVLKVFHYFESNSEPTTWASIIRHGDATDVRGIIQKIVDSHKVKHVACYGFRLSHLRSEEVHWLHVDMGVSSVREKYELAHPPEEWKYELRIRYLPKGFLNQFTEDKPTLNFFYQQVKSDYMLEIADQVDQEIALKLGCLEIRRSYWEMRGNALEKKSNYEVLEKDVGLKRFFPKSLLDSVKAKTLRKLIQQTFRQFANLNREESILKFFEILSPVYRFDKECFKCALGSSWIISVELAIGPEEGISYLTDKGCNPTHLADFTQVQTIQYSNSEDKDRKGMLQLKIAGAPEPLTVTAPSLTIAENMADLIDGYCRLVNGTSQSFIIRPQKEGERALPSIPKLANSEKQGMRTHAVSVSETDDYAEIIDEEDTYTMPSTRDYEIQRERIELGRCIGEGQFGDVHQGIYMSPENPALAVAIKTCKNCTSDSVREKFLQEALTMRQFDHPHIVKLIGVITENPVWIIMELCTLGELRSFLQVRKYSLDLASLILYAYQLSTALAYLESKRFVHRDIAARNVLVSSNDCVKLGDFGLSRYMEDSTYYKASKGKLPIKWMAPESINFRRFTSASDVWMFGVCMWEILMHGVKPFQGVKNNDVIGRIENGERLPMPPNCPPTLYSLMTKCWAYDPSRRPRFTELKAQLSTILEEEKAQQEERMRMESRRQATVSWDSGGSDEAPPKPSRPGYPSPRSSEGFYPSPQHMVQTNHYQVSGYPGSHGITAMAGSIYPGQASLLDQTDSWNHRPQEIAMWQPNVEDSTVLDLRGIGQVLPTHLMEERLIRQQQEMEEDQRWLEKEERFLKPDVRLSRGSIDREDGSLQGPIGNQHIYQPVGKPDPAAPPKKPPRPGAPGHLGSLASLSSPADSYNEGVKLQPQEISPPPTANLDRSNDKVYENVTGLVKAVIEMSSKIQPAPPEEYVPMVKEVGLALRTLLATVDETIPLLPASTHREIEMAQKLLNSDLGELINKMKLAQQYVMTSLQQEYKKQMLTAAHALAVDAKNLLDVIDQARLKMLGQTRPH
Description for in vitro: Metabolic stability in human liver microsomes assessed as hepatic extraction ratio

What is called IC50 is the midpoint of a concentration-inhibition curve. Take `CN(C)[C@@H]1CCC[C@H]1Nc1nc(Nc2ccncc2)ncc1C(F)(F)F`: the figures for the IC50 at Focal adhesion kinase 1 [1] and at Focal adhesion kinase 1 [2] were 6900 nM and 4100 nM, respectively. In addition, the hepatic extraction ratio in the data set “in vitro” amounted to 0.48.
Take `CN(C)[C@@H]1CCC[C@H]1Nc1nc(Nc2ccc3c(c2)CS(=O)(=O)N3)ncc1C(F)(F)F`: the figures for the IC50 (in data set [3]; at Focal adhesion kinase 1 [2]) were 50 nM and > 650 nM, respectively. The hepatic extraction ratio in “in vitro” was < 0.26.
`CN(C)C(=O)c1cccc(Nc2ncc(C(F)(F)F)c(N[C@@H]3CCC[C@H]3N(C)C)n2)c1`: the IC50 on Focal adhesion kinase 1 [1] was found to be 4000 nM; against Focal adhesion kinase 1 [2], 3900 nM. Also, the hepatic extraction ratio in the data set “in vitro” stood at 0.66.
Compound `CCN(CC)C(=O)c1ccc(Nc2ncc(C(F)(F)F)c(N[C@@H]3CCC[C@H]3N(C)C)n2)cc1` had an IC50 at Focal adhesion kinase 1 [2] of 3300 nM. Moreover, the hepatic extraction ratio in the data set “in vitro” was found to be 0.66.
What is called bioavailability is the share of a dose that reaches the circulation, judged against a reference dose that is usually intravenous. A lower bioavailability goes with poor availability. In the case of `Cn1ccc2cc(Nc3ncc(C(F)(F)F)c(NCc4ccccn4)n3)ccc21`, the bioavailability in data set [4] was < 5%.
As to `O=C1Cc2cc(Nc3ncc(C(F)(F)F)c(NCc4ccccc4)n3)ccc2N1`, the IC50 came to 120 nM in data set [3] and 34 nM on Focal adhesion kinase 1 [2]. The hepatic extraction ratio in the data set “in vitro” is < 0.26.
As for `FC(F)(F)c1cnc(Nc2ccc3[nH]ncc3c2)nc1NCc1ccccn1`, the bioavailability in data set [4] is < 5%.
Turning to `O=C1Cc2cc(Nc3nccc(NCc4ccccn4)n3)ccc2N1`, the IC50 (in data set [3]; against Focal adhesion kinase 1 [2]) was > 10000 nM each time. In addition, in “in vitro”, the hepatic extraction ratio is < 0.26.
Consider `Cc1cnc(Nc2ccc3c(c2)CC(=O)N3)nc1NCc1ccccn1`, for which the IC50 in data set [3] is > 3000 nM; against Focal adhesion kinase 1 [2], 2200 nM. Also, the hepatic extraction ratio in “in vitro” was < 0.3.
Consider `O=C1CCCc2cc(Nc3ncc(C(F)(F)F)c(NC4CCC4)n3)ccc2N1`, for which, in data set [3], half-maximal inhibition (IC50) required 33 nM.
With `CS(=O)(=O)c1cccc(CNc2nc(Nc3ccc4c(c3)CC(=O)N4)ncc2C(F)(F)F)c1`, the IC50 in data set [3] was > 1100 nM; against Focal adhesion kinase 1 [2] it was 9 nM. Also, the hepatic extraction ratio in “in vitro” was 0.35.
For `CS(=O)(=O)c1ccccc1CNc1nc(Nc2ccc3c(c2)CC(=O)N3)ncc1C(F)(F)F`, the IC50 in data set [3] worked out at 15 nM; at Focal adhesion kinase 1 [2] it was 59 nM. Moreover, in the data set “in vitro”, the hepatic extraction ratio came to 0.55.
For the compound `CN(c1ccccc1CNc1nc(Nc2ccc(S(C)(=O)=O)cc2)ncc1C(F)(F)F)S(C)(=O)=O`, the IC50 in data set [3] was determined as 35 nM; at Focal adhesion kinase 1 [2], 0.94 nM. In addition, the hepatic extraction ratio in the data set “in vitro” is 0.93.
Regarding `CN(C)[C@@H]1CCC[C@H]1Nc1nc(Nc2ccn3ccnc3c2)ncc1C(F)(F)F`, the hepatic extraction ratio in “in vitro” is 0.41.
As for `O=C1Cc2cc(Nc3ncc(Cl)c(NCc4ccccn4)n3)ccc2N1`, the values for the IC50 (in data set [3]; at Focal adhesion kinase 1 [2]) were > 1000 nM and 77 nM, respectively. Moreover, the hepatic extraction ratio in the data set “in vitro” was < 0.28.
Take `CN(c1cccc(CNc2nc(Nc3ccc4c(c3)CC(=O)N4)ncc2C(F)(F)F)c1)S(C)(=O)=O`: the IC50 in data set [3] came out at 190 nM; on Focal adhesion kinase 1 [2], 1.9 nM. The hepatic extraction ratio in “in vitro” came to 0.59.
